Assay results from BindingDB's records for PubMed 9454810 (Sanofi Recherche, 1998).

Legend:
Histamine H2 receptor = Histamine H2 receptor (Homo sapiens, UniProt P25021)
[1] = target: 5-hydroxytryptamine receptor 3A (Homo sapiens, UniProt P46098)
[2] = target: Gamma-aminobutyric acid receptor subunit alpha-1 (Homo sapiens, UniProt P14867)
Substance-P receptor = Substance-P receptor (Homo sapiens, UniProt P25103)
Galanin peptides = Galanin peptides (Homo sapiens, UniProt P22466)
[3] = target: Muscarinic acetylcholine receptor M2 (Homo sapiens, UniProt P08172)
Vasopressin V1b receptor = Vasopressin V1b receptor (Homo sapiens, UniProt P47901)
[4] = target: Neuropeptide Y receptor type 2 (Homo sapiens, UniProt P49146)
B2 bradykinin receptor = B2 bradykinin receptor (Homo sapiens, UniProt P30411)
[5] = target: Potassium voltage-gated channel subfamily A member 1 (Homo sapiens, UniProt Q09470)
D(1A) dopamine receptor = D(1A) dopamine receptor (Homo sapiens, UniProt P21728)
Thromboxane A2 receptor = Thromboxane A2 receptor (Homo sapiens, UniProt P21731)
[6] = target: Peripheral-type benzodiazepine receptor-associated protein 1 (Homo sapiens, UniProt O95153)
Adenosine receptor A2a = Adenosine receptor A2a (Homo sapiens, UniProt P29274)
[7] = target: 5-hydroxytryptamine receptor 1D (Homo sapiens, UniProt P28221)
Histamine H3 receptor = Histamine H3 receptor (Homo sapiens, UniProt Q9Y5N1)
[8] = target: Protein kinase C alpha type (Homo sapiens, UniProt P17252)
Vasopressin V2 receptor = Vasopressin V2 receptor (Homo sapiens, UniProt P30518)
P2Y purinoceptor 1 = P2Y purinoceptor 1 (Homo sapiens, UniProt P47900)
Neurotensin/neuromedin N = Neurotensin/neuromedin N (Human, UniProt P30990)
[9] = target: 5-hydroxytryptamine receptor 1B (Homo sapiens, UniProt P28222)
Adenosine receptor A1 = Adenosine receptor A1 (Homo sapiens, UniProt P30542)
Histamine H1 receptor = Histamine H1 receptor (Homo sapiens, UniProt P35367)
[10] = target: 5-hydroxytryptamine receptor 2C (Homo sapiens, UniProt P28335)
[11] = target: Type-1 angiotensin II receptor (Homo sapiens, UniProt P30556)
[12] = target: Neuronal acetylcholine receptor subunit alpha-3 (Homo sapiens, UniProt P32297)
[13] = target: Leukotriene B4 receptor 2 (Homo sapiens, UniProt Q9NPC1)
[14] = target: Gastrin/cholecystokinin type B receptor (Homo sapiens, UniProt P32239)
Substance-K receptor = Substance-K receptor (Homo sapiens, UniProt P21452)
[15] = target: Beta-2 adrenergic receptor (Homo sapiens, UniProt P07550)
[16] = target: Endothelin receptor type B (Homo sapiens, UniProt P24530)
[17] = target: Muscarinic acetylcholine receptor M1 (Homo sapiens, UniProt P11229)
[18] = target: Voltage-dependent N-type calcium channel subunit alpha-1B (Homo sapiens, UniProt Q00975)
[19] = target: Calcium-activated potassium channel subunit beta-1 (Homo sapiens, UniProt Q16558)
VIP peptides = VIP peptides (Homo sapiens, UniProt P01282)
P2X purinoceptor 1 = P2X purinoceptor 1 (Homo sapiens, UniProt P51575)
[20] = target: Muscarinic acetylcholine receptor M4 (Homo sapiens, UniProt P08173)
[21] = target: Pro-thyrotropin-releasing hormone (Homo sapiens, UniProt P20396)
[22] = target: Alpha-1A adrenergic receptor (Homo sapiens, UniProt P35348)
[23] = target: AP-4 complex subunit sigma-1 (Homo sapiens, UniProt Q9Y587)

Measured: Ki

Sequence of 5-hydroxytryptamine receptor 1B (P28222 whole entry): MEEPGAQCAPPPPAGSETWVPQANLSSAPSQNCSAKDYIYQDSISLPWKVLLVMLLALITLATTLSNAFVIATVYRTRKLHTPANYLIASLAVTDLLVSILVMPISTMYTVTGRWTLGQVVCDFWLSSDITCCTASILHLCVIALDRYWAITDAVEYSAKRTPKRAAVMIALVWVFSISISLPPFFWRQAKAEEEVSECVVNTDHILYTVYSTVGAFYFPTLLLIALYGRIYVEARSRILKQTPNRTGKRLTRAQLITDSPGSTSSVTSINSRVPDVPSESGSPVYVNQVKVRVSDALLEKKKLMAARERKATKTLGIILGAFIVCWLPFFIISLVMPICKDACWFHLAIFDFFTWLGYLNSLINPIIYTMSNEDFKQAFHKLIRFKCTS
Sequence of Peripheral-type benzodiazepine receptor-associated protein 1 (O95153 whole entry): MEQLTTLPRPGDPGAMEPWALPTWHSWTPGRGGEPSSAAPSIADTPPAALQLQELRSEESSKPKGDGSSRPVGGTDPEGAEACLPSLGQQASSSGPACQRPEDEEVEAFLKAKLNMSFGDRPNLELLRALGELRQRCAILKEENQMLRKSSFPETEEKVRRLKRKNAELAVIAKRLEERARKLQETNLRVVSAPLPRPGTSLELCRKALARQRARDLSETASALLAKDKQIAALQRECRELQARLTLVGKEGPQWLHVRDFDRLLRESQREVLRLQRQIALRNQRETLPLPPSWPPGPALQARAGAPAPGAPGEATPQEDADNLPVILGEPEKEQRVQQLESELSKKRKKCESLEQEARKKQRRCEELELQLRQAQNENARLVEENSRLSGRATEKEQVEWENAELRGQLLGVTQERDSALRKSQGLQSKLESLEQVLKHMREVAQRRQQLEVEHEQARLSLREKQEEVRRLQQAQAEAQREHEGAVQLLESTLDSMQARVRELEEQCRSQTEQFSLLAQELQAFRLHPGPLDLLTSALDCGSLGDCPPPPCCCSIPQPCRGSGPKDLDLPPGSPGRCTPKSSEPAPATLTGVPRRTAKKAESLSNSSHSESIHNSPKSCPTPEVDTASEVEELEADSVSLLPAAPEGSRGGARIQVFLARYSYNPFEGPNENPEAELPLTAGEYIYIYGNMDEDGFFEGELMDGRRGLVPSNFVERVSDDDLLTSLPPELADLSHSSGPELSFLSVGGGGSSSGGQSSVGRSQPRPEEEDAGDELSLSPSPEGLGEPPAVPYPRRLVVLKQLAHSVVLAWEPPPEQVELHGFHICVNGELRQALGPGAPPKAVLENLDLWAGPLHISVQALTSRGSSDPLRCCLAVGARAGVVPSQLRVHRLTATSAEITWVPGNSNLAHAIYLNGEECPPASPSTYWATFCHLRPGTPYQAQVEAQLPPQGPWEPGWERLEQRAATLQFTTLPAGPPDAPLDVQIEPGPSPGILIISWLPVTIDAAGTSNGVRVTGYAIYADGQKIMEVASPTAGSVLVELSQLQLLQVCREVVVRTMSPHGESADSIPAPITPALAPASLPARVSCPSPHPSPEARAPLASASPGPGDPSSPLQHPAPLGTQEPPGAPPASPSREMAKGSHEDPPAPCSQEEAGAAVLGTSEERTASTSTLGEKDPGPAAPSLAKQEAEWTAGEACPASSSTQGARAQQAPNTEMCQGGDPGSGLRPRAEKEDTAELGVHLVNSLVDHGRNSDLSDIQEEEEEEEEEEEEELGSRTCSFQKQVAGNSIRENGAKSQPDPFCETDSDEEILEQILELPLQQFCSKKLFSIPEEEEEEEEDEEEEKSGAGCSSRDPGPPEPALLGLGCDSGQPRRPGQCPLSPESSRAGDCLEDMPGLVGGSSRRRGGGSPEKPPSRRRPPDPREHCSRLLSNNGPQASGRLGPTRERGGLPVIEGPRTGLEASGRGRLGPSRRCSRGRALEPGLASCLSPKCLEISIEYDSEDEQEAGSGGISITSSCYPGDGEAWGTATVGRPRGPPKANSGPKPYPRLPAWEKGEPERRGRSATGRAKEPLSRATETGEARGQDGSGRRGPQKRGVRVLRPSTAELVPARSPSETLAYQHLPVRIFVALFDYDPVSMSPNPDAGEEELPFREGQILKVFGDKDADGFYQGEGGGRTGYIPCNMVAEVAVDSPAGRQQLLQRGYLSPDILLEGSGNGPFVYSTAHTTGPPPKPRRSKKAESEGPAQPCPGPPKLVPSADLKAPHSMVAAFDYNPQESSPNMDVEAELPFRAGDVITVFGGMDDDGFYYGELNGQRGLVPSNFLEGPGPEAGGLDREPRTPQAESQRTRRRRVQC
Sequence of Vasopressin V1b receptor (P47901 whole entry): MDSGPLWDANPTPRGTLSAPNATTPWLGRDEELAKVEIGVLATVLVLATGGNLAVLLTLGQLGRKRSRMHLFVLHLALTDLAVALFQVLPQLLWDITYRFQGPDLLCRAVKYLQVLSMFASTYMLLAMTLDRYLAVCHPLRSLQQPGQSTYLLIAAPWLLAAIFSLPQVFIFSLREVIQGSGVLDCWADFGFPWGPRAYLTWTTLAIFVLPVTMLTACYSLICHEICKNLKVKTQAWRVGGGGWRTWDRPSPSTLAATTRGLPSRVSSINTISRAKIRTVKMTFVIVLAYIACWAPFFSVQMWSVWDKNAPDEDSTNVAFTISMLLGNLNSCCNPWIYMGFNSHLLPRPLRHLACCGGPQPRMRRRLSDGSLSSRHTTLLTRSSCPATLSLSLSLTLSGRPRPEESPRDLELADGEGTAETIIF
Sequence of Muscarinic acetylcholine receptor M2 (P08172 whole entry): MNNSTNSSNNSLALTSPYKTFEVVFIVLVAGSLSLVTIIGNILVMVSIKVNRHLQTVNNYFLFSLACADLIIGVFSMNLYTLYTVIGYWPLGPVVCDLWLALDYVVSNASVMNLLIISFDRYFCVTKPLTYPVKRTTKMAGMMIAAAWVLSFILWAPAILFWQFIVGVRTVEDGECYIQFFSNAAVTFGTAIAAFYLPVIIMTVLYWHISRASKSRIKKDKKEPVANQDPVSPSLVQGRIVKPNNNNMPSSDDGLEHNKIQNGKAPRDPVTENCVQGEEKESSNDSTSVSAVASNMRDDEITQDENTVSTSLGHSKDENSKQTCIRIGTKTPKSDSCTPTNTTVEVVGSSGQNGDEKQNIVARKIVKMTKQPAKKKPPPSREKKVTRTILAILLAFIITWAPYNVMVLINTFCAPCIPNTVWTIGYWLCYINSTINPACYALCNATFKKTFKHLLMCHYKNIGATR
Sequence of Endothelin receptor type B (P24530 whole entry): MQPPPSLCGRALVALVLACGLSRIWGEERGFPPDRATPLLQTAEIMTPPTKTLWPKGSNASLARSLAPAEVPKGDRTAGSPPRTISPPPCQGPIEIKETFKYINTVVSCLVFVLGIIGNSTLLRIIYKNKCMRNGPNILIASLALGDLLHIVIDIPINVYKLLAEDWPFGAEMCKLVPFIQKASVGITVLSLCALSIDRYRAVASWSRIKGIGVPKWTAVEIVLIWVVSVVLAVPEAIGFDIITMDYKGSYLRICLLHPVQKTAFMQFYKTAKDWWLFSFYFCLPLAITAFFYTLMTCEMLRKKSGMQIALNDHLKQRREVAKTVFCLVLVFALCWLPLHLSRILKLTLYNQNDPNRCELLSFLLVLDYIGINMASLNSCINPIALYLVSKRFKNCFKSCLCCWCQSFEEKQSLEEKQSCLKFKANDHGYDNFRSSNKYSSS
Sequence of P2X purinoceptor 1 (P51575 whole entry): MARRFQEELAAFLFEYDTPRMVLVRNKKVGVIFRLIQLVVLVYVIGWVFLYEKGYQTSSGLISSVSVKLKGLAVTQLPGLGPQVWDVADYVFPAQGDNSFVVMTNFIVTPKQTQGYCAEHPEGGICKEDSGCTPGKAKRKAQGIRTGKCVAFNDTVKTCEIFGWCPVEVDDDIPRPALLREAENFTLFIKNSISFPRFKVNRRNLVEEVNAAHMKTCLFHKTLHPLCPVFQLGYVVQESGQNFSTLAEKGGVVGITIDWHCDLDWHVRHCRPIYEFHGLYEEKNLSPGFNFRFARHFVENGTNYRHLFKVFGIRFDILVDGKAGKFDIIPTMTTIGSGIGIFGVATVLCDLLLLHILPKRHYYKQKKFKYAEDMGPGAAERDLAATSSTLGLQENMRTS
Sequence of Neuronal acetylcholine receptor subunit alpha-3 (P32297 whole entry): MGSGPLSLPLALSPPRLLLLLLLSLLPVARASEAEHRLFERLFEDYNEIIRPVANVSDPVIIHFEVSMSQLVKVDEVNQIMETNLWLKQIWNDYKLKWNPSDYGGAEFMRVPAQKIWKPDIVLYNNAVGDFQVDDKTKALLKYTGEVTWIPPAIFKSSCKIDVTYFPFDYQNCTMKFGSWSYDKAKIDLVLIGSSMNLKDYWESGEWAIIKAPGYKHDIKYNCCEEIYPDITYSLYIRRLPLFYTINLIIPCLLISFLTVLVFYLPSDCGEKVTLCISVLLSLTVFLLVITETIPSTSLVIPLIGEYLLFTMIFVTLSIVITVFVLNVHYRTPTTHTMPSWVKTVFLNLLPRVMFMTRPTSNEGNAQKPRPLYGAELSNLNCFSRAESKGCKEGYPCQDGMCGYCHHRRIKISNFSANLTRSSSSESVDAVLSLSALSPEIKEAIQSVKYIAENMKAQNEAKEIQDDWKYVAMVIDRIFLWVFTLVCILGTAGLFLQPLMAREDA
Sequence of Potassium voltage-gated channel subfamily A member 1 (Q09470 whole entry): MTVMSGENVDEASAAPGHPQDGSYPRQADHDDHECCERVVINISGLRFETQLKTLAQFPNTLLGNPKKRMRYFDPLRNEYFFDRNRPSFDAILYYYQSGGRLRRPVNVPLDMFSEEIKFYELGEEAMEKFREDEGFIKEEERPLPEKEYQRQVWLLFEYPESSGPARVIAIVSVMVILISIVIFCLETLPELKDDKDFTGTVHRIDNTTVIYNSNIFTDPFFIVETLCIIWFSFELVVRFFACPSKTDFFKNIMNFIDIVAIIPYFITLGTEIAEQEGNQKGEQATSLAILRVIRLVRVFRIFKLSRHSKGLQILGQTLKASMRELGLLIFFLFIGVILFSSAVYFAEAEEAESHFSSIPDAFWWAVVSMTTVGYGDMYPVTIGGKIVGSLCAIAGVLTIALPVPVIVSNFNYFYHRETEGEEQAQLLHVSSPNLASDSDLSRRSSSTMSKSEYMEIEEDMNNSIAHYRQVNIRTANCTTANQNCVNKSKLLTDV
Sequence of Galanin peptides (P22466 33-62 limits assumed): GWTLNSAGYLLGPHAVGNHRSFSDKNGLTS

Cc1ccc(Cn2nc(C(=O)NC3C(C)(C)C4CC[C@@]3(C)C4)cc2-c2ccc(Cl)c(C)c2)cc1 (stereo not given in full) [N-(1,3,3-trimethylbicyclo(2.2.1)heptan-2-yl)-5-(4-chloro-3-methylphenyl)-1-(4-methylbenzyl)pyrazole-3-carboxamide]
> 10 µM: Histamine H2 receptor | [1] | [2] | Substance-P receptor | Galanin peptides | [3] | Vasopressin V1b receptor | [4] | B2 bradykinin receptor | [5] | D(1A) dopamine receptor | Thromboxane A2 receptor | [6] | Adenosine receptor A2a | [7] | Histamine H3 receptor | [8] | Vasopressin V2 receptor | P2Y purinoceptor 1 | Neurotensin/neuromedin N | [9] | Adenosine receptor A1 | Histamine H1 receptor | [10] | [11] | [12] | [13] | [14] | Substance-K receptor | [15] | [16] | [17] | [18] | [19] | VIP peptides | P2X purinoceptor 1 | [20] | [21] | [22] | [23]
